Reference: ChEMBL document CHEMBL1201862, “PubChem BioAssay data set” (2004)
Active and inactive are the calls of the source.

What was measured:
[1] = molecular target: Inhibitor of nuclear factor kappa-B kinase subunit epsilon (Homo sapiens, UniProt Q14164); test: Navigating the Kinome. Panel member name: IKBKE; assay type: functional
[2] = molecular target: High affinity nerve growth factor receptor (Homo sapiens, UniProt P04629); assay type: functional;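 also: NTRK1 tested as one member of a kinome-wide profiling panel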
High affinity nerve growth factor receptor, sequence (P04629 whole entry): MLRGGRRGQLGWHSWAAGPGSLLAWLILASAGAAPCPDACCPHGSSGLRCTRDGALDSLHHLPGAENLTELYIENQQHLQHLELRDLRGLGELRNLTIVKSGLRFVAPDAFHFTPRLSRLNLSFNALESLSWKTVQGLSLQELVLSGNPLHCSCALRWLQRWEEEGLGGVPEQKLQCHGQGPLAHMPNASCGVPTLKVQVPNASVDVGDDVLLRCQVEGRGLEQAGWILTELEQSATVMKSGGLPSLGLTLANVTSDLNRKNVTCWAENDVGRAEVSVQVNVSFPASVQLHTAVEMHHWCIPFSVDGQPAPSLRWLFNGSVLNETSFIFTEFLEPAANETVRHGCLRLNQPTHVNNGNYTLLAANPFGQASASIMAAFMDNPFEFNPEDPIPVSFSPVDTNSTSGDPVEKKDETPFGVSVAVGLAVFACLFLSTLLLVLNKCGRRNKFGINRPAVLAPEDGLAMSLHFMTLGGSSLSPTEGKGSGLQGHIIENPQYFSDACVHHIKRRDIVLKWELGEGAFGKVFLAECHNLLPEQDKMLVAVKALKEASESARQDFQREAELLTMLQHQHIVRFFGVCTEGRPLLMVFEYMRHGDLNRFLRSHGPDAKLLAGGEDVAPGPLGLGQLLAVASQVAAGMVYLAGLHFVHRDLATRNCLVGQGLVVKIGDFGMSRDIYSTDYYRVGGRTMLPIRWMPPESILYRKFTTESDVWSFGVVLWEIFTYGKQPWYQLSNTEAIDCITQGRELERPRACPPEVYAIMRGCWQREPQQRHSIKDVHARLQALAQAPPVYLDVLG

Lethal factor = Lethal factor (Bacillus anthracis, UniProt P15917); test: High-throughput multiplex microsphere dose response for inhibitors of toxin protease, specifically Lethal Factor protease, compounds from Cherry Pick 01.; assay type: functional; conditions: read-out: EC50_MICROM
[3] = molecular target: T1, Corticotropin-releasing factor receptor 2/Corticotropin-releasing factor-binding protein (Homo sapiens, UniProt P24387+Q13324); test: activators of CRF receptor 2 with binding protein – uHTS hits, confirmation (AID 602473); assay type: functional; conditions: read-out: EC50_Mean
T1 sequence (Q13324 whole entry): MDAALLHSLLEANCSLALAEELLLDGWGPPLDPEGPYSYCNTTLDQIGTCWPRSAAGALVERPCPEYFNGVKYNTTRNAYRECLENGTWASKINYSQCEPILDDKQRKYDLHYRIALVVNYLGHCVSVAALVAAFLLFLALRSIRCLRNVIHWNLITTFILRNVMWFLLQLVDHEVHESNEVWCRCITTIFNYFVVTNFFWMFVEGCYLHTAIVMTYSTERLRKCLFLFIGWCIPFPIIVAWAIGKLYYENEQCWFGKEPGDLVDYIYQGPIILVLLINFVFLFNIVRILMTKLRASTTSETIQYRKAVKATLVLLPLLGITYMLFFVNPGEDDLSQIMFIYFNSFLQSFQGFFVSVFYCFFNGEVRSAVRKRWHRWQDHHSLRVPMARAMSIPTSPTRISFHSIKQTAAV
T1 sequence (P24387 whole entry): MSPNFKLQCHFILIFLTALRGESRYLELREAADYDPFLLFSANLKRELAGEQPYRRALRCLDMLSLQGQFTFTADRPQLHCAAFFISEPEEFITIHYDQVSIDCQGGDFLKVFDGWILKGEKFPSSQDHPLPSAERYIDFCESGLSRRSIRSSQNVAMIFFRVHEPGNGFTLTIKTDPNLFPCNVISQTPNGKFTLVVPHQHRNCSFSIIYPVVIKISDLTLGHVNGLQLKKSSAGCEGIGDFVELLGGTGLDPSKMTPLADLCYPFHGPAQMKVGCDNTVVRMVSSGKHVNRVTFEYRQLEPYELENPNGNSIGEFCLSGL

[4] = molecular target: Botulinum neurotoxin type A (Clostridium botulinum (strain Hall / ATCC 3502 / NCTC 13319 / Type A), UniProt P0DPI1); test: High-throughput multiplex microsphere dose response for inhibitors of toxin protease, specifically Botulinum neurotoxin light chain A protease, compounds from Cherry Pick 01.; assay type: functional; conditions: read-out: EC50_MICROM
Botulinum neurotoxin type A, sequence (P0DPI1 2-448 limits assumed): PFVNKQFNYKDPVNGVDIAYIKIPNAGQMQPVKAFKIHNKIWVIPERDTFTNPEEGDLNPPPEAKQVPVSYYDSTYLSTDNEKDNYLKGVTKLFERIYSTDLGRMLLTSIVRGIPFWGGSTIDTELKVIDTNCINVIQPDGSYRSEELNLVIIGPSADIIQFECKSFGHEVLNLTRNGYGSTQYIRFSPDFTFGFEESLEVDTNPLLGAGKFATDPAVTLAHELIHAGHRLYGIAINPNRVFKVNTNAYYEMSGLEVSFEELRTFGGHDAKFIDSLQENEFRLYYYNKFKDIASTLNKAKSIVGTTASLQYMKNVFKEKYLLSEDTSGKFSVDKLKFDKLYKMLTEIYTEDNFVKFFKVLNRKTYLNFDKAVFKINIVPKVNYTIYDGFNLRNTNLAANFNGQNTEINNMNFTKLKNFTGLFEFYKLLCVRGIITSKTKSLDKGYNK

[5] = molecular target: T2, Zinc finger protein mex-5 (Caenorhabditis elegans, UniProt Q9XUB2); test: potency of MEX-5 RNA-binding blockers – biochemical, C. elegans, fluorescence polarization, dose response (AID 1960)
T2 sequence (Q9XUB2 whole entry): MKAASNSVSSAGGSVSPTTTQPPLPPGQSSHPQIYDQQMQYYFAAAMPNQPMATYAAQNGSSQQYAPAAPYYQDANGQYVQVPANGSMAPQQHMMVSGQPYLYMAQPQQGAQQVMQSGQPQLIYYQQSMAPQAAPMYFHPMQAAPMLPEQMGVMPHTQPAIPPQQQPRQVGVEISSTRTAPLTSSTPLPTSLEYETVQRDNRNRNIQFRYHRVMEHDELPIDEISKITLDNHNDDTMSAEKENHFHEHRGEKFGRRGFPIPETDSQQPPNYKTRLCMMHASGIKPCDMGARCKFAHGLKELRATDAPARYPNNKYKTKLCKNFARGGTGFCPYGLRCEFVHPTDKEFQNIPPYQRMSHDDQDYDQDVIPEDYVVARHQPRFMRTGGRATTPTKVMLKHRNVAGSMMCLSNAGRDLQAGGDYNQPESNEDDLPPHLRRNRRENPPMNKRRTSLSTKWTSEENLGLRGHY

[6] = molecular target: T3, RNA-binding protein pos-1 (Caenorhabditis elegans, UniProt G5EF15); test: disruptors of C. elegans POS-1 RNA interaction – biochemical, fluorescence polarization, dose response (AID 1964);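 also: purified POS-1 fused to maltose binding protein made in E. coli; potency of compounds blocking POS-1 binding to fluorescent RNA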
T3 sequence (G5EF15 whole entry): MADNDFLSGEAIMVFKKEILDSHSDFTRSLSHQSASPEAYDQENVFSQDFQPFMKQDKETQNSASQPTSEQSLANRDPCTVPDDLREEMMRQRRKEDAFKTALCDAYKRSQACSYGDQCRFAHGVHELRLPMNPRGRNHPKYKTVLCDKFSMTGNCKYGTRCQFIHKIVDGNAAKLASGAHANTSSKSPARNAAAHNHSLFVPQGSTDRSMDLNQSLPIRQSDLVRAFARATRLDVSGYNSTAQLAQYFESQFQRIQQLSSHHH

[7] = molecular target: Botulinum neurotoxin type F (Clostridium botulinum, UniProt P30996); test: High-throughput multiplex microsphere dose response for inhibitors of toxin protease, specifically Botulinum neurotoxin light chain F protease, compounds from Cherry Pick 01.; assay type: functional; conditions: read-out: EC50_MICROM
[8] = molecular target: Dual specificity protein kinase CLK4 (Homo sapiens, UniProt Q9HAZ1); assay type: functional
Dual specificity protein kinase CLK4, sequence (Q9HAZ1 whole entry): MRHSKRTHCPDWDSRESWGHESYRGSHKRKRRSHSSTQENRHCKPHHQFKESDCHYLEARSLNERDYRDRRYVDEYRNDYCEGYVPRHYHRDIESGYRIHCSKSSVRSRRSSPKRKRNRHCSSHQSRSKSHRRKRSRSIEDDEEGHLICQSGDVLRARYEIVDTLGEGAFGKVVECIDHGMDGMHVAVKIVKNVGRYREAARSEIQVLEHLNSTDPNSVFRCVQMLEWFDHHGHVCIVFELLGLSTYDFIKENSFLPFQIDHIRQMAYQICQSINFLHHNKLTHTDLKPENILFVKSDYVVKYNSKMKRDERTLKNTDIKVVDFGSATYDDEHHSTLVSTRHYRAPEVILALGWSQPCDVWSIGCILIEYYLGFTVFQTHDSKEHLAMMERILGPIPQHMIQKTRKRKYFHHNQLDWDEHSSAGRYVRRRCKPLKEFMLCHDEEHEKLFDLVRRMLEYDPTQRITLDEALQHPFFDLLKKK

[9] = molecular target: Glycogen synthase kinase-3 beta (Homo sapiens, UniProt P49841); assay type: functional;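 also: value comes from a broad kinome profiling panel, with GSK3B as the panel member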
Glycogen synthase kinase-3 beta, sequence (P49841 whole entry): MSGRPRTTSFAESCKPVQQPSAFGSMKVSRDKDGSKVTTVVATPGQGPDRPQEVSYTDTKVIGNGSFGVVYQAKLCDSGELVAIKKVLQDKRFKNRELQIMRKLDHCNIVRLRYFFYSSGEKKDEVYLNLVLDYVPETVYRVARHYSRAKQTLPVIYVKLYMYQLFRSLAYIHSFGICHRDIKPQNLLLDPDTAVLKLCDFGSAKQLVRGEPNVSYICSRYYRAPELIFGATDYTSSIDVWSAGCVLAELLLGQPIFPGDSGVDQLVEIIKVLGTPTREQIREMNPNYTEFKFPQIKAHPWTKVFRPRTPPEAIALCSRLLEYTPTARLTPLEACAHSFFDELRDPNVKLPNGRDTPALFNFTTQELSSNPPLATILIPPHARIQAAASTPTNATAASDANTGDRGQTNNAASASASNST

[10] = molecular target: Dual specificity tyrosine-phosphorylation-regulated kinase 1A (Homo sapiens, UniProt Q13627); assay type: functional;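 also: measured against DYRK1A as one member of a broad kinome profiling panel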
[11] = molecular target: Glycogen synthase kinase-3 alpha (Homo sapiens, UniProt P49840); assay type: functional;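 also: GSK3A result taken from a broad kinome-wide kinase panel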
Glycogen synthase kinase-3 alpha, sequence (P49840 whole entry): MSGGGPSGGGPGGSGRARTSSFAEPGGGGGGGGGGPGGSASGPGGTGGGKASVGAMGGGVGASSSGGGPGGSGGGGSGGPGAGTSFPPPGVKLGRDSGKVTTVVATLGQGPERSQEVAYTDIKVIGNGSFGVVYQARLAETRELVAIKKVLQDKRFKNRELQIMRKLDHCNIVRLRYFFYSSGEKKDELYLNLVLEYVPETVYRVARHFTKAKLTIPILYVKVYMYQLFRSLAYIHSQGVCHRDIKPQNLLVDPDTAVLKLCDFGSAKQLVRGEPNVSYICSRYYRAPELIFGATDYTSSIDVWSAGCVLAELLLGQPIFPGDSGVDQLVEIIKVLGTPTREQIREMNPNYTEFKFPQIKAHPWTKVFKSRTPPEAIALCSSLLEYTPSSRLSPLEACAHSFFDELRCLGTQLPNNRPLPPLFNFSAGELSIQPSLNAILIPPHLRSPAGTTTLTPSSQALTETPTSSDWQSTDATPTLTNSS

[12] = molecular target: Tyrosine-protein kinase receptor TYRO3 (Homo sapiens, UniProt Q06418); assay type: functional;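 also: TYRO3 value obtained as one member of a kinome-wide profiling panel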
Tyrosine-protein kinase receptor TYRO3, sequence (Q06418 whole entry): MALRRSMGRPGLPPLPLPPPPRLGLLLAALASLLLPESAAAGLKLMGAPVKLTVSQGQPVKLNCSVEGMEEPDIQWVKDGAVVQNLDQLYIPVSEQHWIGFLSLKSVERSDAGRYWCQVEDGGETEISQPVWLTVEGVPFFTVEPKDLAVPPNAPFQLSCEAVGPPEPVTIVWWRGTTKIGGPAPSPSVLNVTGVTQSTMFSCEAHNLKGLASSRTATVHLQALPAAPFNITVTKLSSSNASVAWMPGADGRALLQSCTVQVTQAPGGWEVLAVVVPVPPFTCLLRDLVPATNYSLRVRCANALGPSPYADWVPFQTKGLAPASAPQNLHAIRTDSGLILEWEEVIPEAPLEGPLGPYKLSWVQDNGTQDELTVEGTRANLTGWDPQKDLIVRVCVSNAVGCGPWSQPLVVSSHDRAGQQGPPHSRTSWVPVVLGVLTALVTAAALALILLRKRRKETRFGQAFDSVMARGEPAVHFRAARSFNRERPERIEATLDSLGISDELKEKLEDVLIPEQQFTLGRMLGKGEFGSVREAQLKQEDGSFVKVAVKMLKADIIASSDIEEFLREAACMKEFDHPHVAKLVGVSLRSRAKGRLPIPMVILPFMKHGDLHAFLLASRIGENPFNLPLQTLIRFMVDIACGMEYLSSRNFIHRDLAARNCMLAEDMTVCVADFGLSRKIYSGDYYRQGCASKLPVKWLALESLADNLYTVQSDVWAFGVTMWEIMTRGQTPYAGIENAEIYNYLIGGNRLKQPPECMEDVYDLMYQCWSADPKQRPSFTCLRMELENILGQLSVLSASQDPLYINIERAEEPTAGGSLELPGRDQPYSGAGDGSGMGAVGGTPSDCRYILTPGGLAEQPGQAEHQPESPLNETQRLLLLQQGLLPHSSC

[13] = molecular target: Cyclin-dependent kinase 5 (Homo sapiens, UniProt Q00535); assay type: functional;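 also: CDK5 measured as one member of a kinase profiling panel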
Cyclin-dependent kinase 5, sequence (Q00535 whole entry): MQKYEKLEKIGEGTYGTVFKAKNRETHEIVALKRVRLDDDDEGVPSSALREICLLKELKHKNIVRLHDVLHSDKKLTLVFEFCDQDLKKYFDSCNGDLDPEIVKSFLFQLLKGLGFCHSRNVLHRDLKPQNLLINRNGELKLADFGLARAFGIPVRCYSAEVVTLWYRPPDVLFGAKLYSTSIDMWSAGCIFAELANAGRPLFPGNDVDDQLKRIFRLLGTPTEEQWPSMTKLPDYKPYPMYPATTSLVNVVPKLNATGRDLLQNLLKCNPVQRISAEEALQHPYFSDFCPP

[14] = molecular target: Platelet-derived growth factor receptor alpha (Homo sapiens, UniProt P16234); test: Navigating the Kinome. Panel member name: PDGFRA; assay type: functional
[15] = molecular target: Cyclin-dependent kinase 19 (Homo sapiens, UniProt Q9BWU1); test: Navigating the Kinome. Panel member name: CDC2L6; assay type: functional
[16] = molecular target: Serine/threonine-protein kinase pim-1 (Homo sapiens, UniProt P11309); assay type: functional
Serine/threonine-protein kinase pim-1, sequence (P11309 whole entry): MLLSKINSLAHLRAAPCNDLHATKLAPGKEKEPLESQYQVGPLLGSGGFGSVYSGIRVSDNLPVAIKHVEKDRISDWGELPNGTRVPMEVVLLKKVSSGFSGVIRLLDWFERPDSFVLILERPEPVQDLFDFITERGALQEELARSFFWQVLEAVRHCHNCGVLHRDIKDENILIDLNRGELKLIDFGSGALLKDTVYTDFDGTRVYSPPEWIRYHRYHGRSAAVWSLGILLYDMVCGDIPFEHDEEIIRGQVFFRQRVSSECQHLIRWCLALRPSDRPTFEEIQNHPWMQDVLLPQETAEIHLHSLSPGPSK

[17] = Mcl1-dependent cancer cell viability – HMC-1-8 cells, luminescence, dry powder, selectivity assay for A1 inhibitor project, dose response (AID 504415); assay type: functional, cell-based; conditions: Homo sapiens
[18] = test system: Streptococcus sp. 'group A'; test: Streptococcus pyogenes SK(-)GAS viability under kanamycin – luminescence, BacTiterGlo, confirmation, counter-screen for streptokinase expression inhibitor project, dose response (AID 1900); assay type: functional, organism-based
Streptococcus = test: GAS UMAA2166 growth inhibition – luminescence, BacTiterGlo, counter-screen for streptokinase expression inhibitor project, dose response (AID 1915); assay type: functional, organism-based;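 also: potency for reduction of bacterial viability or growth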
[19] = HEK-293T cell viability reduction – luminescence, B-cell screen hits, cytotoxicity control for BCR NF-kB inhibitor project, dose response (AID 489021); assay type: functional, cell-based;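 also: HEK-293T cells carrying an NF-kB luciferase reporter; cells exposed to compound for about 14 hours before viability readout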
Streptokinase A = molecular target: T4, Streptokinase A (Streptococcus pyogenes serotype M1, UniProt P10520); test: viability-normalized secreted streptokinase activity reduction – plasminogen activation absorbance, OD405, dose response (AID 1914); assay type: functional, Streptococcus pyogenes M1 GAS;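 also: secreted streptokinase activity via plasminogen activation per viability signal from cell pellet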
T4 sequence (P10520 whole entry): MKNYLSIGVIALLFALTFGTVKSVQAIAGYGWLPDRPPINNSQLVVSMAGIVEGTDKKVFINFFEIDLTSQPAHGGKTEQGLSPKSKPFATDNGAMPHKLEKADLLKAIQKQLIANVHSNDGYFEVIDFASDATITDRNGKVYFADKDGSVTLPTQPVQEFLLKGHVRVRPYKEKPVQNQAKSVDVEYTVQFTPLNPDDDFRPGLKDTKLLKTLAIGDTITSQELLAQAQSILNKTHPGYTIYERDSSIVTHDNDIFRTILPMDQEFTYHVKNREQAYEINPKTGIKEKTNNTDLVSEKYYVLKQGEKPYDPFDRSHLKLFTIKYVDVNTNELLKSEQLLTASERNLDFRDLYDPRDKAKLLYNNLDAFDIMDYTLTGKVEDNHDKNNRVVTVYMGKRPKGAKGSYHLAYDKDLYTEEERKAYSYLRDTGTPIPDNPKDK

Inhibitor of nuclear factor kappa-B kinase subunit epsilon, sequence (Q14164 whole entry): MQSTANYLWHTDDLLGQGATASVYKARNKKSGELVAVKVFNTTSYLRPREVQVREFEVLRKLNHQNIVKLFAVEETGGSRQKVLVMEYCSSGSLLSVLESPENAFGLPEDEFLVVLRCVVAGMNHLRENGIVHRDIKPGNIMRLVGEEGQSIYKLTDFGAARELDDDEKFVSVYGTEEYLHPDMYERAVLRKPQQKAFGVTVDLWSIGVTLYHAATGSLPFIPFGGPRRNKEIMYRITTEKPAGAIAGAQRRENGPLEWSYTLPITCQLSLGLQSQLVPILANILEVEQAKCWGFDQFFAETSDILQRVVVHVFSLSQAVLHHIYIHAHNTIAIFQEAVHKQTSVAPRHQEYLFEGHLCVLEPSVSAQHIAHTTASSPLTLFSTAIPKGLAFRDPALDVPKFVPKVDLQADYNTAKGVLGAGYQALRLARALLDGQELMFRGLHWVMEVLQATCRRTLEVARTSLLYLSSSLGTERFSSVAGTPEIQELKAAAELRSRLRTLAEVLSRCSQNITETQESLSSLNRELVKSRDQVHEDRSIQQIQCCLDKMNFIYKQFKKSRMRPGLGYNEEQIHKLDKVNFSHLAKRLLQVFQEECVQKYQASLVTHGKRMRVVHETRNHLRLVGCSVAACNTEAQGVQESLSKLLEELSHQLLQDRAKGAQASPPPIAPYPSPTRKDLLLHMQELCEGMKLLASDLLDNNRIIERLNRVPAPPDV

With `Nc1ncnc2c1N=C(c1ccc(NC(=O)Nc3ccc(F)c(C(F)(F)F)c3)cc1)CCN2` the Ki [1] was 3.16 µM (active) and the Ki [2] was 0.126 µM (active).
With `O=c1c(/C=C(\O)c2ccccc2)nc2ccccc2n1-c1ccccc1` the EC50 (Lethal factor) was 20 µM (inactive), the EC50 [3] was 11.6 µM (active) and the EC50 [4] was 20 µM (inactive). For the same compound, the EC50 [5] was 6.1 µM (inconclusive), the EC50 [6] was 78.2 µM (inconclusive) and the EC50 [7] was 20 µM (inactive).
In the case of `COc1nc(N)c(C#N)c(-c2ccc(Cl)cc2Cl)c1C#N`, the Ki [8] is reported as 7.94 µM (active), the Ki [9] is reported as 2.51 µM (active) and the Ki [10] is reported as 5.01 µM (active). For the same compound, the Ki [11] was 2.51 µM (active).
In the case of `CC(=O)n1nc(N)c2ccc(Br)cc21`, the Ki [12] is reported as 2.51 µM (active), the Ki [13] is reported as 1.58 µM (active) and the Ki [14] is reported as 2.51 µM (active).
In the case of `O=C1CC(c2ccccc2)Cc2[nH]c3cc(Cl)ccc3c(=O)c21` (stereo not drawn), the Ki [8] is reported as 3.98 µM (active), the Ki [15] is reported as > 100 µM (inactive) and the Ki [16] is reported as 2.51 µM (active).
In the case of `O=C(Oc1cccc(/C=N/Nc2nc(Nc3ccccc3)nc(N3CCOCC3)n2)c1)c1ccco1`, the AC50 [17] is reported as 56.1 µM (active), the EC50 [18] is reported as 9.28 µM (active) and the EC50 (Streptococcus) is reported as 16 µM (active). The IC50 [19] was > 80 µM (inactive) and the EC50 (Streptokinase A) was > 150 µM (not active).
